Laboratory results published in US8637518B2, “Pyridazinone derivatives” (MERCK PATENT GmbH, priority 2008, dated 2014).

Experiments:
[1] = molecular target: T1, Met kinase (Homo sapiens, UniProt P08581); experiment: Met kinase inhibition, enzyme assay (flashplate method); assay type: biochemical
T1 construct: 6His (N); purchased Upstate 14-526; host or cells: Sf21 insect cells (S. frugiperda), baculovirus
Description: According to the manufacturer's data (Met, active, upstate, catalogue No. 14-526), Met kinase is expressed for the purposes of protein production in insect cells (Sf21; S. frugiperda) and subsequent affinity-chromatographic purification as “N-terminal 6His-tagged” recombinant human protein in a baculovirus expression vector.
The test plates used are 96-well Flashplate® microtitre plates from Perkin Elmer (Cat. No. SMP200). The components of the kinase reaction described below are pipetted into the assay plate. The Met kinase and the substrate poly Ala-Glu-Lys-Tyr, (pAGLT, 6:2:5:1), are incubated for 3 hrs at room temperature with radioactively labelled ^33P-ATP in the presence and absence of test substances in a total volume of 100 μl. The reaction is terminated using 150 μl of a 60 mM EDTA solution. After incubation for a further 30 min at room temperature, the supernatants are filtered off with suction, and the wells are washed three times with 200 μl of 0.9% NaCl solution each time. The measurement of the bound radioactivity is carried out by means of a scintillation measuring instrument (Topcount NXT, Perkin-Elmer).
The full value used is the inhibitor-free kinase reaction. This should be approximately in the range 6000-9000 cpm. The pharmacological zero value used is staurosporin in a final concentration of […]. The inhibitory values ([…]) are determined using the RS1_MTS program.
Kinase reaction conditions per well:
• 30 μl of assay buffer • 10 μl of substance to be tested in assay buffer with 10% of DMSO • 10 μl of ATP (final concentration 1 μM cold, 0.35 μCi of ^33P-ATP) • 50 μl of Met kinase/substrate mixture in assay buffer; • (10 ng of enzyme/well, 50 ng of pAGLT/well)
Solutions used: • Assay buffer:
50 mM HEPES • 3 mM magnesium chloride • 3 μM sodium orthovanadate • 3 mM manganese(II) chloride • 1 mM dithiothreitol (DTT)
pH=7.5 (to be set using sodium hydroxide) • Stop solution:
60 mM Titriplex III (EDTA) • ^33P-ATP: Perkin-Elmer; • Met kinase: Upstate, Cat. No. 14-526, Stock 1 μg/10 μl; spec. activity 954 U/mg; • Poly-Ala-Glu-Lys-Tyr, 6:2:5:1: Sigma Cat. No. P1152 In-vivo tests

[2] = tested on: TPR-Met/NIH3T3 cells; experiment: In-vivo tests: tumour volume in mice injected subcutaneously with TPR-Met/NIH3T3 cells; conditions: female Balb/C mice, subcutaneous TPR-Met/NIH3T3 tumours, 200 mg/kg daily by gastric tube, 9 days
Procedure: Experimental procedure: Female Balb/C mice (breeder: Charles River Wiga) were 5 weeks old on arrival. They were acclimatised to our keeping conditions for 7 days. Each mouse was subsequently injected subcutaneously in the pelvic area with 4 million TPR-Met/NIH3T3 cells in 100 μl of PBS (without Ca++ and Mg++). […] 100 μl of vehicle (0.25% methylcellulose/100 mM acetate buffer, pH 5.5) were administered daily to the control group, and 200 mg/kg of “A56” or “A91” dissolved in the vehicle (volume likewise 100 μl/animal) were administered daily to the treatment groups, in each case by gastric tube.
Measurement of the tumour volume: The length (L) and breadth (B) were measured using a Vernier calliper, and the tumour volume was calculated from the formula L×B×B/2.
Keeping conditions: 4 or 5 animals per cage, feeding with commercial mouse food (Sniff).

T1 sequence (P08581 974-1390 limits assumed): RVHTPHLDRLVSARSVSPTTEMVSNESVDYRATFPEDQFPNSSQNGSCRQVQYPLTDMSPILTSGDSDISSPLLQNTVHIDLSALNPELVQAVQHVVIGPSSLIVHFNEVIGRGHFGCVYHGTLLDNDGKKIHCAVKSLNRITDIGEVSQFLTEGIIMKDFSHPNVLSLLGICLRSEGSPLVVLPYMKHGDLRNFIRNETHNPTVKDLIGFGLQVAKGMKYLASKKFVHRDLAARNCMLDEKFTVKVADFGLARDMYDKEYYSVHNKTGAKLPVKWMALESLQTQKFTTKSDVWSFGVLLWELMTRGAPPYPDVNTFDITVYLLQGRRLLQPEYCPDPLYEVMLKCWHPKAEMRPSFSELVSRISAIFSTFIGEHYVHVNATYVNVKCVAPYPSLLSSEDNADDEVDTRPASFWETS

SMILES	IC50 [1] [nM]	antitumoural action [2]	melting point [°C]
Cn1cc(-c2ccc(=O)n(Cc3cccc(-c4ncc(OC[C@H]5C[C@@H]5CN)cn4)c3)n2)cn1 [Compound A18, 2-{3-[5-((1S,2S)-2-Aminomethylcyclopropylmethoxy)pyrimidin-2-yl]benzyl}-6-(1-methyl-1H-pyrazol-4-yl)-2H-pyridazin-3-one]	10 to 1000	significant antitumoural action	–
Cn1cc(-c2ccc(=O)n(Cc3cccc(-c4ncc(OC5CCC(O)C5)cn4)c3)n2)cn1 (stereo not shown) [Compound A22, 2-{3-[5-(3-hydroxycyclopentyloxy)pyrimidin-2-yl]benzyl}-6-(1-methyl-1H-pyrazol-4-yl)-2H-pyridazin-3-one]	–	significant antitumoural action	–
CC(C)(C)OC(=O)N1CCC(COc2cnc(-c3cccc(Cn4nc(-c5cccc(C(N)=O)c5)ccc4=O)c3)nc2)CC1 [Compound C18, tert-butyl 4-(2-{3-[3-(3-carbamoylphenyl)-6-oxo-6H-pyridazin-1-ylmethyl]-phenyl}pyrimidin-5-yloxymethyl)piperidine-1-carboxylate]	–	–	197 to 198
